Data as given in PubChem BioAssay AID256 (DTP/NCI, 2004).
Inconclusive results and toxic doses are left out. The calls were made as follows: active = survival T/C of 150% or more; inactive = T/C below 125% in these data.

System: CD2F1 mice, L1210 leukemia ip, survival T/C
Test: NCI In Vivo Anticancer Drug Screen. Data for tumor model L1210 Leukemia (intraperitoneal) in CD2F1 (CDF1) mice
Details: higher = longer survival
How it was run: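 Each value reflects a quotient of treated over vehicle control outcomes in mice with a transplanted tumor.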

[1] = endpoint: mean survival time, dose: 100.0 mg/kg/injection, schedule: Q01DX009 (ip), vehicle: saline with Tween-80
[2] = endpoint: mean survival time, dose: 100.0 mg/kg/injection, schedule: Q04DX003 (ip), vehicle: saline with Tween-80
[3] = endpoint: mean survival time, dose: 200.0 mg/kg/injection, schedule: Q01DX009 (ip), vehicle: saline with Tween-80
[4] = endpoint: mean survival time, dose: 200.0 mg/kg/injection, schedule: Q04DX003 (ip), vehicle: saline with Tween-80
[5] = endpoint: mean survival time, dose: 400.0 mg/kg/injection, schedule: Q01DX009 (ip), vehicle: saline with Tween-80
[6] = endpoint: mean survival time, dose: 400.0 mg/kg/injection, schedule: Q04DX003 (ip), vehicle: saline with Tween-80
[7] = endpoint: mean survival time, dose: 100.0 mg/kg/injection, schedule: Q01DX001 (ip), vehicle: saline with Tween-80
[8] = endpoint: mean survival time, dose: 200.0 mg/kg/injection, schedule: Q01DX001 (ip), vehicle: saline with Tween-80
[9] = endpoint: mean survival time, dose: 400.0 mg/kg/injection, schedule: Q01DX001 (ip), vehicle: saline with Tween-80
[10] = endpoint: mean survival time, dose: 100.0 mg/kg/injection, schedule: Q04DX002 (ip), vehicle: saline with Tween-80
[11] = endpoint: mean survival time, dose: 200.0 mg/kg/injection, schedule: Q04DX002 (ip), vehicle: saline with Tween-80

Measured: T/C

ClCC1C(CCl)C2(Cl)C(Cl)=C(Cl)C1(Cl)C2(Cl)Cl (stereo not drawn)
inactive: [1] 100 % of control | [2] 93 % of control | [3] 98 % of control | [4] 95 % of control | [5] 93 % of control | [6] 93 % of control

O=c1cc(NCCCCCc2ccccc2)[nH]c(=O)[nH]1
inactive: endpoint: mean survival time, dose: 37.5 mg/kg/injection, schedule: Q01DX001 (ip), vehicle: saline with Tween-80 96 % of control | endpoint: mean survival time, dose: 75.0 mg/kg/injection, schedule: Q01DX001 (ip), vehicle: saline with Tween-80 100 % of control | endpoint: mean survival time, dose: 150.0 mg/kg/injection, schedule: Q01DX001 (ip), vehicle: saline with Tween-80 96 % of control

CCC(=O)c1cccc([N+](=O)[O-])c1
inactive: [7] 100 % of control | [1] 96 % of control | [2] 102 % of control | [8] 104 % of control | [3] 97 % of control | [4] 102 % of control | [9] 93 % of control | [5] 97 % of control | [6] 98 % of control

O=C1NC(CN2CCC(O)CC2)C(=O)NC1CN1CCC(O)CC1 (stereo not drawn)
inactive: endpoint: mean survival time, dose: 3.13 mg/kg/injection, schedule: Q01DX009 (ip), vehicle: water 97 % of control | endpoint: mean survival time, dose: 6.25 mg/kg/injection, schedule: Q01DX009 (ip), vehicle: water 95 % of control | endpoint: mean survival time, dose: 12.5 mg/kg/injection, schedule: Q01DX009 (ip), vehicle: water 97 % of control | endpoint: mean survival time, dose: 25.0 mg/kg/injection, schedule: Q01DX009 (ip), vehicle: water 100 % of control | endpoint: mean survival time, dose: 50.0 mg/kg/injection, schedule: Q01DX009 (ip), vehicle: water 100 % of control | endpoint: mean survival time, dose: 100.0 mg/kg/injection, schedule: Q01DX009 (ip), vehicle: water 108 % of control

Nc1cccc(C(=O)O)c1
inactive: [2] 95 % of control | [4] 94 % of control | [6] 94 % of control

CN=[N+]([O-])C1(OC(C)=O)CCCC1
inactive: endpoint: mean survival time, dose: 50.0 mg/kg/injection, schedule: Q01DX001 (ip), vehicle: saline 110 % of control | endpoint: mean survival time, dose: 100.0 mg/kg/injection, schedule: Q01DX001 (ip), vehicle: saline 117 % of control

COC(=O)c1csc(NC2OC(CO)C(O)C2O)n1 (stereo not drawn)
inactive: endpoint: median survival time, dose: 45.9 mg/kg/injection, schedule: Q01DX005 (ip), vehicle: saline 100 % of control | endpoint: median survival time, dose: 91.8 mg/kg/injection, schedule: Q01DX005 (ip), vehicle: saline 100 % of control | endpoint: median survival time, dose: 183.6 mg/kg/injection, schedule: Q01DX005 (ip), vehicle: saline 97 % of control

OCC1OC(n2cnc3c(/C=C(/O)c4ccccc4)ncnc32)C(O)C1O (stereo not drawn)
inactive: endpoint: mean survival time, dose: 12.5 mg/kg/injection, schedule: Q01DX005 (ip), vehicle: distilled water + Tween-80 102 % of control | endpoint: mean survival time, dose: 25.0 mg/kg/injection, schedule: Q01DX005 (ip), vehicle: distilled water + Tween-80 91 % of control | endpoint: mean survival time, dose: 50.0 mg/kg/injection, schedule: Q01DX005 (ip), vehicle: distilled water + Tween-80 87 % of control | endpoint: mean survival time, dose: 100.0 mg/kg/injection, schedule: Q01DX005 (ip), vehicle: distilled water + Tween-80 90 % of control | endpoint: mean survival time, dose: 200.0 mg/kg/injection, schedule: Q01DX005 (ip), vehicle: distilled water + Tween-80 98 % of control

COc1ccc2nc(-c3ccc(F)cc3)cc(C(=O)O)c2c1
inactive: [2] 97 % of control | [4] 101 % of control | [6] 101 % of control

CCCC(C)(CCC)OC(=O)Nc1cccc2ccccc12
inactive: [7] 92 % of control | [8] 92 % of control | [9] 92 % of control

Cc1cc2ncn(CO)c2cc1C
inactive: [1] 105 % of control | [3] 100 % of control | [5] 111 % of control

CNC(=S)SCCC(=O)O
inactive: [10] 113 % of control | [11] 102 % of control | endpoint: mean survival time, dose: 400.0 mg/kg/injection, schedule: Q04DX002 (ip), vehicle: saline with Tween-80 102 % of control

COc1ccc(C(Sc2ccccc2)c2ccc(OC)cc2)cc1
inactive: [1] 95 % of control | [2] 95 % of control | [3] 90 % of control | [4] 95 % of control | [5] 86 % of control | [6] 96 % of control

Nc1ccc(C(=O)Nc2ccc(OCc3nc(N)nc(N)c3-c3ccc(Cl)cc3)cc2)cc1
inactive: [7] 97 % of control | [8] 93 % of control | [9] 95 % of control

OC(COc1ccc(Cl)cc1)COc1ccc(Cl)cc1
inactive: endpoint: mean survival time, dose: 25.0 mg/kg/injection, schedule: Q01DX001 (ip), vehicle: saline with Tween-80 94 % of control | endpoint: mean survival time, dose: 50.0 mg/kg/injection, schedule: Q01DX001 (ip), vehicle: saline with Tween-80 94 % of control | [7] 105 % of control

CCOC(=O)C(C(=O)OCC)=C1CCC(=O)O1
inactive: [10] 111 % of control | [11] 90 % of control
